Experimental data: patent publication US20240197733A1, “A GABA RECEPTOR MODULATOR FOR USE IN THE TREATMENT OF PAIN” (SANIONA A/S, priority 2021, published 2024)

Assays:
Type in all cases: in vivo, Sprague-Dawley rats
[1] = test system: electrocutaneous stimulation-induced facial pain rodent model; assay: ES-induced facial pain model, mechanical allodynia (Von Frey filaments), acute treatment; conditions: 30 mg/kg po, acute, 2 and 4 hours post dosing; p<0.001, p<0.0001 vs vehicle
Excerpt: (§1) The electrocutaneous stimulation-induced facial pain rodent model is a reproducible orofacial pain model in which depilated cheek area of rats are repeatedly subjected to electrical stimulation. Repeated electrical stimulation at low intensities produces craniofacial pain that mimics the behavioral characteristics of TN such as development of mechanical and thermal allodynia at cheeks despite no visible edema, swelling or excessive injury and tissue damage.
(§2) Male wild type, Sprague-Dawley rats (Charles River Laboratories) born in-house at AfaSci Research Laboratory between May 24, 2020 to May 28, 2020. At approximately 3 months of age (approximately 350 g-450 g body weight) the rats were deemed suitable for the electrocutaneous stimulation-induced facial pain model. Prior to the experiment, the rats were maintained in group cages (3 rats per cage) in a controlled environment (temperature: 21.5±4.5° C./relative humidity: 35-55%) under a standard 12 h light/12 h dark lighting cycle (lights on at 06:00).
(§3) The required quantity of the compounds are weighed and dissolved in 100% DMSO in a volume amounting to 5% of the total volume while placed on a stirrer. The weight of the compounds refers to the free base weights. Once the solution becomes clear/transparent, the remaining volume of the vehicle is added (30% HPBCD prepared in MQ water) to final concentrations of 0.1, 0.3, and 1 mg/ml for Compound 1 and 3 mg/ml of Carbamazepine. The solutions are kept on a stirrer before- and during administration of the compounds to the animals.
(§4) The experimenter assessing the behavioral responses to drug administration is blinded to the drug treatment to the animals. Each treatment group is coded according the scheme below: • A. Vehicle (5% DMSO+30% HPBCD): 10 ml/kg • B. Compound 1: 1 mg/kg • C. Compound 1: 3 mg/kg • D. Compound 1: 10 mg/kg • F. Carbamazepine: 30 mg/kg
(§5) Second baseline measurement was carried out similarly to day 1. […] For each animal, the average of the two baseline nociceptive measurements were calculated within each pain modality (mechanical, heat- and cold pain), and used as baseline (“Baseline” point on figures).
Similarly, to day 1- and 2, all rats were subjected to acclimatization to test equipment and decapicone followed by measurements of ES-induced facial mechanical- heat- and cold allodynia (“0” time point on figures). […] Compound 1, vehicle and Carbamazepine was administered perorally in doses of 1, 3, and 10 mg/kg (Compound 1) or 30 mg/kg (carbamazepine) and drug effects on pain thresholds were evaluated 2- and 4 hours after drug administration by assessment of mechanical- (von Frey) and thermal hypersensitivity (heat- and cold stimulation respectively).
(§6) Decrease in ES-induced pain threshold was evaluated 22 hours following electrical stimulation of the depilated left cheek area (between the eye and ear ridge, this is a receptive field of trigeminal nerve) of each rat and was manifested as facial withdrawal following application of Von Frey filaments for mechanical allodynia and a heat lamp and acetone test for thermal hyperalgesia and allodynia respectively. Baseline pain behaviors were measured similarly to ES-induced facial pain measurements, except that rats were not subjected to ES stimulation.
Mechanical pain thresholds were assessed by measuring each rat's facial withdrawal threshold (g) in response to von Frey monofilaments (BioSeb). […]

[2] = test system: electrocutaneous stimulation-induced facial pain rodent model; assay: ES-induced facial pain model, hot thermal hyperalgesia (lamp test, selective C fiber testing), acute treatment; conditions: 30 mg/kg po, post 4 hours of dose, p<0.0001
Excerpt: as §1, §2, §3, §4
Second baseline measurement was carried out similarly to day 1. Immediately following the second baseline recording, each rat received 1 hr of electrocutaneous stimulation at cheek (0.4 mA intensity, 10 ms duration, 1 s inter-pulse interval). For each animal, the average of the two baseline nociceptive measurements were calculated within each pain modality (mechanical, heat- and cold pain), and used as baseline (“Baseline” point on figures).
Similarly, to day 1- and 2, all rats were subjected to acclimatization to test equipment and decapicone followed by measurements of ES-induced facial mechanical- heat- and cold allodynia (“0” time point on figures). Based on the individual rat's mechanical- and thermal hypersensitivity, 40 rats were selected for drug testing. Compound 1, vehicle and Carbamazepine was administered perorally in doses of 1, 3, and 10 mg/kg (Compound 1) or 30 mg/kg (carbamazepine) and drug effects on pain thresholds were evaluated 2- and 4 hours after drug administration by assessment of mechanical- (von Frey) and thermal hypersensitivity (heat- and cold stimulation respectively).
as §6
Immediately following assessment of mechanical pain threshold, thermal (hot- and cold induced) pain was determined. […]

[3] = test system: electrocutaneous stimulation-induced facial pain rodent model; assay: ES-induced facial pain model, cold thermal allodynia (acetone test), acute treatment; conditions: 30 mg/kg po, 2 and 4 hrs post dose, p<0.001 and p<0.0001 vs vehicle
Excerpt: as §1, §2
The required quantity of the compounds are weighed and dissolved in 100% DMSO in a volume amounting to 5% of the total volume while placed on a stirrer. The weight of the compounds refers to the free base weights. […]
as §5
Similarly, to day 1- and 2, all rats were subjected to acclimatization to test equipment and decapicone followed by measurements of ES-induced facial mechanical- heat- and cold allodynia (“0” time point on figures). […] Compound 1, vehicle and Carbamazepine was administered perorally in doses of 1, 3, and 10 mg/kg (Compound 1) or 30 mg/kg (carbamazepine) and drug effects on pain thresholds were evaluated 2- and 4 hours after drug administration by assessment of mechanical- (von Frey) and thermal hypersensitivity (heat- and cold stimulation respectively). […]

NC(=O)N1c2ccccc2C=Cc2ccccc21 [Carbamazepine, reference compound]
effect on mechanical allodynia (mechanical pain threshold, Von Frey) vs vehicle [1]: significant analgesic effects
effect on heat thermal hyperalgesia (facial withdrawal latency) vs vehicle [2]: full reversal of heat hyperalgesia
effect on cold pain threshold (acetone test, facial withdrawal latency) vs vehicle [3]: significant enhancement of the cold pain threshold
